Data: patent US12016834B2, “Small molecule inhibitors of SLC25A1” (GEORGETOWN UNIVERSITY, priority 2017, dated 2024)

Columns and labels:
Format in all cases: cell-based, human
H1299 cells [1] = assay: Proliferation / viability in monolayer (2D) cultures
Description: (§1) Cellular proliferation and cytotoxicity assays. The proliferative capacity of cells was assessed by plating cells in triplicate at a concentration of 2,000 to 10,000 cells/well in 96 well plates in triplicate, with or without drug treatment for 48 hours. The cells were then washed with 1×PBS and fixed with cold 100% methanol at−20° C. for 20 minutes. Methanol was washed off and the cells were stained with 0.5% crystal violet dissolved in 25% methanol and water at 4° C. for 20 minutes. The staining was washed off using deionized (DI) water and the plate was dried overnight. On the second day, 100 mM sodium citrate in 50% ethanol and 50% water was added to the wells and absorbance at 550 nm was measured and corrected with readings at 405 nm. In other experiments, cell viability was assessed by trypan blue exclusion and visual count of the live cells was performed.

H1299 spheres = assay: Cell cycle analysis of spheres; settings: after three days of treatment
Description: Flow cytometry. Tumor cells were trypsinized and washed in 1×PBS. The cells were then stained with the antibodies of choice: CD166-PE (Biolegend), CD133-647 (Biolegend), or CD44 (Biolegend), in 1% BAS-PBS. The cell cycles of monolayers or spheres of the cells were analyzed by fixing the cells in cold 75% ethanol. The annexin V (Biolegend) and propidium iodide (Biolegend) experiments were carried out.

H1299 cells [2] = assay: Citrate levels in mitochondrial or cytoplasmic fractions; settings: 4 hours
Description: Cells, reagents, antibodies, primers. The H1299 cell lines and other cell lines employed in this study were obtained from ATCC or from the tissue culture core facility at LCCC. Cells were grown in Dulbecco's Modified Eagle's Medium (DMEM, 25 mM glucose, with glutamine and pyruvate from Invitrogen; Carlsbad, CA) and supplemented with 10% fetal calf serum (FCS). […] The SLC25A1 specific shRNA vectors were purchased from Sigma. The vector expressing human SLC25A1 untagged or Flag-Myc epitope tagged were from Origene; Rockville, MD (#SC120727 and RC200657, respectively). The anti-SLC25A1 antibody used in immuno-blot was from Santa Cruz Biotech, #sc-86392 employed at 1:1000 dilution. Citrate, lactate, and PFK measurements were performed by using commercially available kits (Biovision (Milpitas, CA)).
Mitochondria isolation and cellular sub-fractionation. Mitochondria and cytoplasmic fractions were prepared as follows. Cells were collected in PBS for 5′, then the pellet was e-suspended in 5 packed cell volumes of mitochondria buffer (250 mM sucrose; 20 mM HEPES (7.4); 10 mM KCl, 1.5 mM MgCl2; 1 mM EDTA; 1 mM EGTA 0.5 M, supplemented with freshly added PMSF and 1 mM […]). Cell lysates were passed through a 25 G needle 10 times, then 5 times through a 27 G needle, followed by incubation on ice for 10-15 minutes. Extracts were centrifuged at 720 G for 5 minutes. The supernatant was centrifuged again at 10000 G and the derived pellet provided the mitochondrial fraction and the supernatant provided the cytoplasmic fraction. To extract the mitochondria for measurement of citrate, the pellet from the previous centrifugation was resuspended in PBS and subjected to 3 cycles of freeze-and-thaw in dry ice immersed in ethanol. The fraction was centrifuged again and re-suspended in PBS. The supernatant (containing cytosolic and membrane fractions) was centrifuged multiple times to eliminate particulate material, and was used as the cytosolic fraction.

MP1 cells = assay: Viability (Crystal Violet) and drug interaction (R index)
Description: as §1, with “The proliferative capacity of cells was assessed by plating cells in triplicate at a concentration of 2,000 to 10,000 cells/well in 96 well plates in triplicate, with or without drug treatment for 48 hours.” left out
(§2) Statistical methods for drug interactions. […] Sexp/Sobs=1.0 denotes an additive interaction, while >1.0 denotes a synergistic interaction. R index values approaching 2.0 are indicative of strong synergy.

MP2 cells = assay: as above; settings: CTPI-2 with either cisplatin or AZD9291, 5 days
Description: as §1, with “The proliferative capacity of cells was assessed by plating cells in triplicate at a concentration of 2,000 to 10,000 cells/well in 96 well plates in triplicate, with or without drug treatment for 48 hours.” left out
as §2

MP3 cells = assay: as above; settings: CTPI-2 with either cisplatin or AZD9291, 5 days
Description: as §1, with “The proliferative capacity of cells was assessed by plating cells in triplicate at a concentration of 2,000 to 10,000 cells/well in 96 well plates in triplicate, with or without drug treatment for 48 hours.” left out
as §2

## O=C(O)c1ccccc1NS(=O)(=O)c1ccc(Cl)c([N+](=O)[O-])c1 [CTPI-2]
H1299 cells [1]; SLC25A1-shRNA lentivirus, live cells counted after one week
  proliferation of cells expressing the SLC25A1-shRNA: failed to inhibit proliferation
H1299 cells [1]; monolayer or methylcellulose single cells (FIG. 3J)
  anti-proliferative activity, ranges of concentrations: anti-proliferative activity at comparable ranges of concentrations
H1299 spheres
  cell cycle effect in spheres: modestly cytostatic
H1299 cells [2]; 2D cultures
  cytoplasmic citrate: reduction of cytoplasmic citrate
  mitochondrial citrate: induced accumulation of mitochondrial citrate
H1299 cells [2]; spheres
  cytosolic citrate: without affecting the cytosolic citrate
  mitochondrial citrate: starkly decreased mitochondrial citrate
MP1 cells; CTPI-2 with either cisplatin or AZD9291, 5 days
  re-sensitization, type of drug interaction (R index): starkly synergistic
MP1 cells; co-treatment with cisplatin (FIG. 15D)
  sensitivity of a single cisplatin-resistant clone: re-sensitized to cisplatin
MP2 cells
  re-sensitization, type of drug interaction (R index): starkly synergistic
MP3 cells
  re-sensitization, type of drug interaction (R index): starkly synergistic
